Test results taken from patent US6737383B1, “Herbicidal oxadiazolidines” (priority 1999, dated 2004).

How the values were obtained:
blackgrass = test: Test B pre/postemergence blackgrass; format: in vivo, Alopecurus myosuroides
How it was run: (§1)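 Herbicidal effect was estimated by eye on a ten-point control scale after plants spent twelve to sixteen days in a greenhouse following soil or foliar treatment. Foliar sprays targeted plants at one to four leaves; all doses were formulated in a non-phytotoxic solvent with surfactant.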

cocklebur = test: Test B pre/postemergence cocklebur; format: in vivo, Xanthium strumarium
How it was run: as §1

crabgrass = test: Test B pre/postemergence crabgrass; format: in vivo, Digitaria sanguinalis
How it was run: as §1

wild oat = test: Test B pre/postemergence wild oat; format: in vivo, Avena fatua
How it was run: as §1

pigweed = test: Test B pre/postemergence pigweed; format: in vivo, Amaranthus retroflexus
How it was run: as §1

soybean = test: Test B pre/postemergence soybean; format: in vivo, Glycine max
How it was run: as §1

rape = test: Test B pre/postemergence rape; format: in vivo, Brassica napus
How it was run: as §1

surinam grass = test: Test B pre/postemergence surinam grass; format: in vivo, Brachiaria decumbens
How it was run: as §1

bamyardgrass = test: Test B flood test barnyardgrass; format: in vivo, Echinochloa crus-galli
How it was run: (§2)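 Flood test on plants grown to the 2-leaf stage; treated plants kept in greenhouse twelve to sixteen days, then visually rated against controls on a 0 (no effect) to 10 (complete control) scale.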

sugar beet = test: Test B pre/postemergence sugar beet; format: in vivo, Beta vulgaris
How it was run: as §1

wheat = test: Test B pre/postemergence wheat; format: in vivo, Triticum aestivum
How it was run: as §1

corn = test: Test B pre/postemergence corn; format: in vivo, Zea mays
How it was run: as §1

velvetleaf = test: Test B pre/postemergence velvetleaf; format: in vivo, Abutilon theophrasti
How it was run: as §1

bedstraw = test: Test B pre/postemergence bedstraw; format: in vivo, Galium aparine; conditions: Preemergence
How it was run: as §1

smallflower flatsedge = test: Test B flood test smallflower flatsedge; format: in vivo, Cyperus difformis
How it was run: as §2

purple nutsedge = test: Test B pre/postemergence purple nutsedge; format: in vivo, Cyperus rotundus
How it was run: as §1

[1] = Postemergence, Rate 125 g/ha, scale 0 to 10, 0 is no effect, 10 is complete control
[2] = Postemergence, Rate 250 g/ha, scale 0 to 10, 0 is no effect, 10 is complete control
[3] = Postemergence, Rate 500 g/ha, scale of 0 to 10 where 0 is no effect and 10 is complete control
[4] = Preemergence, Rate 62 g/ha, scale 0 to 10 (0 no effect, 10 complete control)
[5] = Preemergence, Rate 125 g/ha, scale of 0 to 10 where 0 is no effect and 10 is complete control
[6] = Preemergence, Rate 250 g/ha, scale of 0 to 10 where 0 is no effect and 10 is complete control
[7] = Preemergence, Rate 500 g/ha, scale 0 to 10, 0 is no effect, 10 is complete control
[8] = Rate 62 g/ha, Postemergence, scale of 0 to 10 where 0 is no effect and 10 is complete control
[9] = Preemergence, Rate 250 g/ha, scale 0 to 10, 0 is no effect, 10 is complete control
[10] = Rate 62 g/ha, flood test species, Pre-emergence, visual evaluation after twelve to sixteen days
[11] = Rate 125 g/ha, under heading Pre-emergence, flood test species, visual evaluation after twelve to sixteen days
[12] = Rate 250 g/ha, Pre-emergence (flood test species), scale 0 to 10, 0 is no effect, 10 is complete control
[13] = Rate 500 g/ha, Pre-emergence, flood test species, scale 0 to 10 (0 no effect, 10 complete control)

C=CC[Si](C)(C)Cn1c(=O)on(C(=O)N(c2ccc(Cl)cc2)C(C)C)c1=O [Compound 414]
Plant response rating, Blackgrass (blackgrass; [1]): 2
Plant response rating, Blackgrass (blackgrass; [2]): 5
Blackgrass plant response rating (blackgrass; [3]): 7
Plant response rating, Blackgrass (blackgrass; [4]): 0
Plant response rating, Blackgrass (blackgrass; [5]): 0
Blackgrass plant response rating (blackgrass; [6]): 3
Blackgrass plant response rating (blackgrass; [7]): 10
Blackgrass plant response rating (blackgrass; [8]): 0
Plant response rating, Cocklebur (cocklebur; [1]): 0
Plant response rating, Cocklebur (cocklebur; [2]): 0
Cocklebur plant response rating (cocklebur; [3]): 0
Plant response rating, Cocklebur (cocklebur; [4]): 0
Plant response rating, Cocklebur (cocklebur; [5]): 0
Cocklebur plant response rating (cocklebur; [9]): 0
Cocklebur plant response rating (cocklebur; [7]): 0
Cocklebur plant response rating (cocklebur; [8]): 0
Plant response rating, Crabgrass (crabgrass; [1]): 3
Plant response rating, Crabgrass (crabgrass; [2]): 6
Crabgrass plant response rating (crabgrass; [3]): 9
Plant response rating, Crabgrass (crabgrass; [4]): 2
Plant response rating, Crabgrass (crabgrass; [5]): 7
Crabgrass plant response rating (crabgrass; [9]): 9
Crabgrass plant response rating (crabgrass; [7]): 10
Crabgrass plant response rating (crabgrass; [8]): 1
Wild oats plant response rating (wild oat; [3]): 2
Plant response rating, Wild oats (wild oat; [4]): 0
Plant response rating, Wild oats (wild oat; [5]): 0
Wild oats plant response rating (wild oat; [9]): 2
Wild oats plant response rating (wild oat; [7]): 7
Plant response rating, Redroot pigweed (pigweed; [2]): 0
Redroot pigweed plant response rating (pigweed; [3]): 0
Plant response rating, Redroot pigweed (pigweed; [4]): 0
Plant response rating, Redroot pigweed (pigweed; [5]): 0
Redroot pigweed plant response rating (pigweed; [9]): 0
Redroot pigweed plant response rating (pigweed; [7]): 0
Plant response rating, Soybean (soybean; [2]): 2
Soybean plant response rating (soybean; [3]): 3
Plant response rating, Soybean (soybean; [4]): 0
Plant response rating, Soybean (soybean; [5]): 0
Soybean plant response rating (soybean; [9]): 0
Soybean plant response rating (soybean; [7]): 0
Plant response rating, Rape (rape; [2]): 0
Rape plant response rating (rape; [3]): 0
Plant response rating, Rape (rape; [4]): 0
Plant response rating, Rape (rape; [5]): 0
Rape plant response rating (rape; [9]): 0
Rape plant response rating (rape; [7]): 0
Plant response rating, B. signalgrass (surinam grass; [1]): 0
Plant response rating, B. signalgrass (surinam grass; [2]): 1
B. signalgrass plant response rating (surinam grass; [3]): 6
Plant response rating, B. signalgrass (surinam grass; [4]): 0
Plant response rating, B. signalgrass (surinam grass; [5]): 0
B. signalgrass plant response rating (surinam grass; [6]): 1
B. signalgrass plant response rating (surinam grass; Preemergence, Rate 500 g/ha, scale of 0 to 10 where 0 is no effect and 10 is complete control): 5
B. signalgrass plant response rating (surinam grass; [8]): 0
Plant response rating, Barnyardgrass (0 to 10 scale, 0 is no effect, 10 is complete control) (bamyardgrass; [10]): 0
Barnyardgrass plant response rating (0 to 10 scale, 0 is no effect, 10 is complete control) (bamyardgrass; [11]): 0
Barnyardgrass plant response rating (bamyardgrass; [12]): 0
Barnyardgrass plant response rating (bamyardgrass; [13]): 0
Plant response rating, Sugarbeets (sugar beet; [2]): 0
Sugarbeets plant response rating (sugar beet; [3]): 0
Plant response rating, Sugarbeets (sugar beet; [4]): 0
Plant response rating, Sugarbeets (sugar beet; [5]): 0
Sugarbeets plant response rating (sugar beet; [9]): 0
Sugarbeets plant response rating (sugar beet; [7]): 0
Wheat plant response rating (wheat; [3]): 0
Plant response rating, Wheat (wheat; [4]): 0
Plant response rating, Wheat (wheat; [5]): 0
Wheat plant response rating (wheat; [9]): 0
Wheat plant response rating (wheat; [7]): 0
Plant response rating, Corn (corn; [1]): 0
Plant response rating, Corn (corn; [2]): 0
Corn plant response rating (corn; [3]): 0
Plant response rating, Corn (corn; [4]): 0
Plant response rating, Corn (corn; [5]): 0
Corn plant response rating (corn; [9]): 0
Corn plant response rating (corn; [7]): 0
Corn plant response rating (corn; [8]): 0
Plant response rating, Velvetleaf (velvetleaf; [2]): 0
Velvetleaf plant response rating (velvetleaf; [3]): 0
Plant response rating, Velvetleaf (velvetleaf; [4]): 0
Plant response rating, Velvetleaf (velvetleaf; [5]): 0
Velvetleaf plant response rating (velvetleaf; [9]): 0
Velvetleaf plant response rating (velvetleaf; [7]): 0
Plant response rating, Bedstraw (bedstraw; Rate 62 g/ha, scale 0 to 10 (0 no effect, 10 complete control)): 0
Plant response rating, Bedstraw (bedstraw; Rate 125 g/ha, scale of 0 to 10 where 0 is no effect and 10 is complete control): 0
Bedstraw plant response rating (bedstraw; Rate 250 g/ha, scale of 0 to 10 where 0 is no effect and 10 is complete control): 0
Bedstraw plant response rating (bedstraw; Rate 500 g/ha, scale 0 to 10, 0 is no effect, 10 is complete control): 0
Plant response rating, S. Flatsedge (0 to 10 scale, 0 is no effect, 10 is complete control) (smallflower flatsedge; [10]): 0
S. Flatsedge plant response rating (0 to 10 scale, 0 is no effect, 10 is complete control) (smallflower flatsedge; [11]): 0
S. Flatsedge plant response rating (smallflower flatsedge; [12]): 0
S. Flatsedge plant response rating (smallflower flatsedge; [13]): 0
Plant response rating, Nutsedge (purple nutsedge; [2]): 0
Nutsedge plant response rating (purple nutsedge; [3]): 0
Plant response rating, Nutsedge (purple nutsedge; [4]): 0
Plant response rating, Nutsedge (purple nutsedge; [5]): 0
Nutsedge plant response rating (purple nutsedge; [9]): 0
